The record followed here is US4268630A, “Microbiological production of ketones from C3 -C6 alkanes” (priority 1979, dated 1981).

Assay [1] has as its system Pseudomonas sp. ATCC 21439. Briefly: Oxidation of sec-alcohols to ketones by resting cell suspension. To be noted: methanol-grown, obligate. Format: cell-based. The method, then:
(§1) The pH of the nutrient medium was adjusted to 7.0 by the addition of acid or base and 50 ml. samples of the nutrient medium were charged into a plurality of 300 ml. shaker flasks. The shaker flasks were inoculated with an inoculating loop of cells from an agar plate containing homogeneous colonies of the microorganisms on the plate (the purity of the isolates was confirmed by microscopic examination). The isolates had been maintained on methanol (0.4% V/V) agar plates or on agar plates under an atmosphere of methane and air having a 1:1 V/V gas ratio which had been transferred every two weeks. For growth on methanol, the medium was supplemented with 0.4% methanol. For growth on methane, the gaseous phase of the inoculated flasks was replaced with a gas mixture comprised on methane and air having a ratio of 1:1 on a V/V basis. The inoculated flasks were sealed air-tight and were incubated on a rotary shaker of orbital radius 2.5 cm. at 250 rpm and at 30° C. for two days until turbidity in the medium had developed. The cells were harvested by centrifugation at 10,000×g. at 4° C. for 30 minutes. The cell pellet was washed twice with a 0.05 M phosphate buffer at a pH of 7.0 (containing 0.02 M MgCl2). The washed cells were then suspended in a 0.05 M phosphate buffer at pH 7.0.
(§2) A 0.5 ml. sample of each washed cell suspension (2 mg. cells) was put into 10 ml. vials at 4° C. which were sealed with a rubber cap. The gaseous phase of the vials was removed with vacuum and then was replaced with a gas mixture of the substrate reactant (i.e., alkane or secondary alcohol) and oxygen at a 1:1 V/V ratio. (In the case of a liquid substrate, i.e., secondary alcohol, 10 μl of the substrate was put in the 10 ml. vials). […] Samples of product (1-3 μl) were withdrawn periodically with a microsyringe and the products were analyzed by gas chromatography (ionization flame detector column).
(§3) The procedure in Example 1 was repeated except that a plurality of methanol-utilizing methylotrophic microorganisms were each aerobically grown in a methanol-containing nutrient medium instead of a methane-containing medium. The nutrients in the medium were the same as indicated in Example 1 except that 0.4% V/V methanol was used as the alcohol dehydrogenase inducer and as the major carbon and energy source for growth. The cells were harvested and washed as described in Example 1. The resting microbial cells of the induced methanol-grown methanol-utilizing methylotrophic microorganisms were then contacted with C3 -C6 secondary alcohols in a buffered solution by the procedure of Example 1.

Assay [2] has as its system Pseudomonas MS ATCC 25262. The assay is described as above. Format: cell-based. Particulars: methanol-grown, facultative. The method, then: as §1, §2, §3
Assay [3] concerns Kloeckera sp. Strain A2 (NRRL Y-11,420). Briefly: Oxidation of sec-alcohols to ketones by cell suspensions of yeasts. The assay is classed as cell-based.
Assay [4] relates to cell extracts of Torulopsis sp. strain A1 NRRL Y-11,419. Description: NAD+-dependent oxidation of secondary alcohols by cell extracts of yeasts. The assay is classed as biochemical. To be noted: cell extracts, grown on methanol, NAD+; gas chromatography.
Assay [5] concerns cell extracts of Hansenula polymorpha ATCC 26,012. Described as above. Format: biochemical. Particulars: cell extracts, grown on methanol, NAD+; gas chromatography.
The test system of a further assay is Pichia sp. NRRL-Y-11328. Description: Oxidation of sec-alcohols to ketones by cell suspensions of yeasts. The assay is classed as cell-based.
Assay [6] concerns Torulopsis sp. Strain A1 (NRRL Y-11,419). The description is as above. The assay is classed as cell-based.
Assay [7] relates to secondary alcohol dehydrogenase (SADH). Briefly: Activity of purified secondary alcohol dehydrogenase (inhibition, substrate specificity, Km). Format: biochemical, Pseudomonas sp. ATCC 21439. The method, then: Secondary alcohol dehydrogenase (SADH) from an obligate methanol utilizer, Pseudomonas sp. ATCC 21439 was purified as follows. […] 0.05 M sodium phosphate buffer, pH 7.0 with 0.5 mM dithiothretol (buffer A) and were disrupted sonically (5×1 min.). The crude extract was separated by centrifugation. The crude extract was heat-treated at 50° C. in a water bath for 10 minutes. The resulting precipitate was removed by centrifugation. To the supernatant solution, 25 ml of protamine sulfate solution (2% solution in 0.1 M Tris base) was added dropwise with continuous stirring. After standing for 30 minutes, the extract was centrifuged. The supernatant solution was fractionated with solid ammonium sulfate. The material precipitating between 30 and 60% saturation was collected and was dialized overnight against buffer A. The The dialized material was applied to a DEAE-cellulose column (3 cm by 35 cm) that had been equilibrated with buffer A. The secondary alcohol dehydrogenase activity was eluted in the void volume. This DEAE-cellulose eluate was concentrated by ammonium sulfate fractionation. Material precipitating between 30 and 50% ammonium sulfate saturation was collected by centrifugation and dialyzed overnight against A. This fraction was further washed and filtered through an Amicon unit with XM 50 membrane. The concentrated fraction (6 ml) inside the Amicon unit was applied to an Affi-Gel Blue column (0.8 cm×18 cm) which had been equilibrated with buffer A for affinity chromatography. The column was washed overnight with buffer A (0.18 ml./min.) and then was eluted with buffer A containing 5 mM NAD. Each 1 ml. fraction was collected.
The purified secondary alcohol dehydrogenase enzyme (SADH) may be used directly for converting C3 -C6 secondary alcohols to the corresponding methyl ketones by the procedures described above; however, a source of NAD^+ must be added to the reaction medium. One can determine the NAD-linked secondary alcohol dehydrogenase activity with a fluorescence spectrophotometer (Perkin Elmer, Model MPF 44A) by following the formation of reduced NAD (Ex 340 nm, Em 460 nm). The assay system (3 ml.) will typically contain: sodium phosphate buffer pH 7.0, 150 μmol; NAD 1.0 μmol; a given amount of enzyme preparation; and 20 μmol secondary alcohol. The reaction is started by the addition of secondary alcohol. One unit of SADH enzyme activity represents the reduction of one nmole NAD per minute.
The effect of metal-chelating agents and thioreagents on the activity of the purified SADH enzyme were studied. […] The possibility of ethanol or n-propanol as an inhibitor was studied.

As to `CC(C)O` [2-Propanol, 2-propanol], the “Conversion Rates, sec-alcohol to methyl ketone” value came out at 7.4 μmoles/hr/mg protein in assay [1] and 0.80 μmoles/hr/mg protein in assay [2]. The “Conversion Rate, sec-alcohol to ketone” value in assay [3] (growth substrate Ethanol) is on record as 4.5 μmoles/hr/mg of protein; in assay [3] (growth substrate Methanol) it was 4.8 μmoles/hr/mg of protein; in assay [3] (growth substrate Methylamine), 4.0 μmoles/hr/mg of protein; in assay [3] (growth substrate Methylformate), 4.9 μmoles/hr/mg of protein; in assay [3] (growth substrate Propylamine) it was 4.0 μmoles/hr/mg of protein; with Pichia sp. NRRL-Y-11328 (growth substrate Ethanol), 4.5 μmoles/hr/mg of protein. The “Conversion Rate, sec-alcohol to ketone” value in the assay on Pichia sp. NRRL-Y-11328 (growth substrate Methanol) is given as 5.2 μmoles/hr/mg of protein; in the assay on Pichia sp. NRRL-Y-11328 (growth substrate Methylamine), 4.2 μmoles/hr/mg of protein; with Pichia sp. NRRL-Y-11328 (growth substrate Methylformate), 4.9 μmoles/hr/mg of protein; with Pichia sp. NRRL-Y-11328 (growth substrate Propylamine), 3.2 μmoles/hr/mg of protein; in assay [6] (growth substrate Ethanol), 4.2 μmoles/hr/mg of protein; in assay [6] (growth substrate Methanol), 4.5 μmoles/hr/mg of protein. For the same compound, the “Conversion Rate, sec-alcohol to ketone” value is given as 4.3 μmoles/hr/mg of protein in assay [6] (growth substrate Methylamine), 4.5 μmoles/hr/mg of protein in assay [6] (growth substrate Methylformate) and 3.2 μmoles/hr/mg of protein in assay [6] (growth substrate Propylamine). The entries for the “Conversion Rate, secondary alcohol to methylketone” value in assay [4] and in assay [5] were 4.5 μmoles/hr/mg Protein and 4.8 μmoles/hr/mg Protein, respectively. The “substrate specificity of purified SADH (in words)” value in assay [7] is on record as “highest”. Further, the “relative percent rate of oxidation” value in assay [7] (2-butanol = 100%) was found to be 85%.
